Several values for one entry are separate records, joined by “and”; a condition that tells them apart may be missing. Identical values can stand only once. Entries after “also recorded” stand apart in the source; their conditions may differ.
Tests used:
[1] = system: HIV-1 RT mutant resistance test vector A62V; assay: Phenotypic susceptibility assay, site directed RTV A62V; assay type: cell-based; conditions: RTV with A62V vs wild type RTV; for Average fold reduction in susceptibility: 3 replicates
Procedure: (§1) Resistance tests were carried out with resistance test vectors using two host cell types. Resistance test vector viral particles were produced by a first host cell (the resistance test vector host cell) that was prepared by transfecting a packaging host cell with the resistance test vector and the packaging expression vector. The resistance test vector viral particles were then used to infect a second host cell (the target host cell) in which the expression of the indicator gene is measured.
(§2) The resistance test vectors containing a functional luciferase gene cassette were constructed and host cells were transfected with the resistance test vector DNA. The resistant test vectors contained patient-derived reverse transcriptase and protease sequences that were either susceptible or resistant to the antiretroviral agents, such as nucleoside reverse transcriptase inhibitors, non-nucleoside reverse transcriptase inhibitors and protease inhibitors. The resistance test vector viral particles produced by transfecting the resistance test vector DNA into host cells, either in the presence or absence of protease inhibitors, were used to infect target host cells grown either in the absence of NRTI or NNRTI or In the presence of increasing concentrations of the drug. The amount of luciferase activIty produced in infected target host cells in the presence of drug was compared to the amount of luciferase produced in infected target host cells in the absence of drug. Drug resistance was measured as the amount of drug required to inhibit by 50% the luciferase activity detected in the absence of drug (Inhibitory concentration 50%, IC50). The IC50 values were determined by plotting percent drug inhibition vs. log 10 drug concentration.
(§3) Host cells were seeded in 10-cm-diameter dishes and were transfected several days after plating with resistance test vector plasmid DNA and the envelope expression vector. Transfections were performed using a calcium-phosphate precipitation procedure. The cell culture media containing the DNA precipitate was replaced with fresh medium, from one to 24 hours, after transfection. Cell culture media containing resistance test vector viral particles was harvested one to four days after transfection and was passed through a […] filter before being stored at −80° C. HIV capsid protein (p24) levels in the harvested cell culture media were determined by an EIA method as described by the manufacturer (SIAC; Frederick, Md.). Before infection, target cells (293 and 293/T) were plated in cell culture media. Control infections were performed using cell culture media from mock transfections (no DNA) or transfections containing the resistance test vector plasmid DNA without the envelope expression plasmid. One to three or more days after infectIon the media was removed and cell lysis buffer (Promega) was added to each well. Cell lysates were assayed for luciferase activity (FIG. 3). The inhibitory effect of the drug was determined using the following equation:
(§4) % luciferase inhibition=1−(RLUluc[drug]÷RLUluc)×100
(§5) where RLUluc [drug] is the relative light unit of luciferase activity in infected cells in the presence of drug and RLUluc is the Relative Light Unit of luciferase activity in infected cells in the absence of drug. IC50 values were obtained from the sigmoidal curves that were generated from the data by plotting the percent inhibition of luciferase activity vs. the log 10 drug concentration. The drug inhibition curves are shown in (FIG. 3).
(§6) Genotypic changes that are observed to correlate with changes in phenotypic patterns of drug susceptibility are evaluated by construction of resistance test vectors containing the specific mutation on a defined, wild-type (drug susceptible) genetic background. Mutations may be incorporated alone and/or in combination with other known drug resistance mutations that are thought to modulate the susceptibility of HIV to a certain drug or class of drugs. […]

[2] = system: HIV-1 RT mutant resistance test vector M41L-T69SSA-T215Y-RTV; assay: Phenotypic susceptibility assay, site directed RTV M41L+T69SSA+T215Y; assay type: cell-based; conditions: for Average fold reduction in susceptibility: RTV with 41 + 69 + 215 (M41L, T69SSA, T215Y), 2 replicates; for effect on susceptibility (words): RTV with M41L+T69SSA+T215Y
Procedure: as §1, §2, §3, §4, §5, §6

[3] = system: HIV-1 RT mutant resistance test vector 41 + 62 + 69 + 75M + 210 + 215; assay: Phenotypic susceptibility assay, site directed RTV 41 + 62 + 69 + 75M + 210 + 215; assay type: cell-based; conditions: RTV with 41 + 62 + 69 + 75M + 210 + 215; 1 replicate
Procedure: as §1, §2, §3, §4, §5, §6

[4] = system: HIV-1 RT mutant resistance test vector V75I; assay: Phenotypic susceptibility assay, site directed RTV V75I; assay type: cell-based; conditions: RTV with V75I vs wild type RTV
Procedure: as §1
as §2, with “The amount of luciferase activIty produced in infected target host cells in the presence of drug was compared to the amount of luciferase produced in infected target host cells in the absence of drug. Drug resistance was measured as the amount of drug required to inhibit by 50% the luciferase activity detected in the absence of drug (Inhibitory concentration 50%, IC50).” left out
(§7) Host cells were seeded in 10-cm-diameter dishes and were transfected several days after plating with resistance test vector plasmid DNA and the envelope expression vector. […] HIV capsid protein (p24) levels in the harvested cell culture media were determined by an EIA method as described by the manufacturer (SIAC; Frederick, Md.). […] The inhibitory effect of the drug was determined using the following equation: […]
(§8) Genotypic changes that are observed to correlate with changes in phenotypic patterns of drug susceptibility are evaluated by construction of resistance test vectors containing the specific mutation on a defined, wild-type (drug susceptible) genetic background. […]

[5] = system: HIV-1 RT mutant resistance test vector V75I+Q151M; assay: Phenotypic susceptibility assay, site directed RTV V75I+Q151M; assay type: cell-based; conditions: RTV with V75I+Q151M
Procedure: as §1
(§9) The resistance test vectors containing a functional luciferase gene cassette were constructed and host cells were transfected with the resistance test vector DNA. […] The IC50 values were determined by plotting percent drug inhibition vs. log 10 drug concentration.
as §7

[6] = system: resistance test vectors containing five (M41L, D67N, K70R, T215Y, K219Q) or six (M41L, D67N, K70R, L210W, T215Y, K219Q) AZT resistance associated mutations; assay: Phenotypic susceptibility assay, site directed RTVs with five or six AZT resistance associated mutations; assay type: cell-based, HIV-1
Procedure: as §1, §9, §7

[7] = system: HIV-1 RT mutant resistance test vector V75V; assay: Phenotypic susceptibility assay, site directed RTV V75V; assay type: cell-based; conditions: for effect on susceptibility (words): RTV with V75V
Procedure: as §1
as §2, with “The amount of luciferase activIty produced in infected target host cells in the presence of drug was compared to the amount of luciferase produced in infected target host cells in the absence of drug. Drug resistance was measured as the amount of drug required to inhibit by 50% the luciferase activity detected in the absence of drug (Inhibitory concentration 50%, IC50).” left out
as §7, §8

[8] = system: HIV-1 RT mutant resistance test vector A62V+V75I; assay: Phenotypic susceptibility assay, site directed RTV A62V+V75I; assay type: cell-based; conditions: RTV with A62V+V75I
Procedure: as §1, §9, §7

[9] = system: HIV-1 RT mutant resistance test vector T69SSA and V75I; assay: Phenotypic susceptibility assay, site directed RTV T69SSA+V75I; assay type: cell-based; conditions: V75I added onto the T69SSA background
Procedure: as §1, §9, §7

[10] = system: RTV clone 285-1 (T69SSA) versus revertant 285-1 (SSA69T); assay: Phenotypic susceptibility assay, patient 285 clone and T69SSA revertant; assay type: cell-based, HIV-1; conditions: T69SSA→SSA69T in a clone of a patient's virus
[11] = system: HIV with RT Val75→Thr mutation; conditions: cited from earlier work
[12] = system: HIV with RT mutation at codon 50; conditions: mutation at codon 50, in vitro; cited from earlier work
[13] = system: HIV with multi-nucleoside resistance complex (A62V, V75I, F77L, Y116F and Q115M); conditions: cited from earlier work
[14] = system: HIV with multiple ZDV resistance mutations; conditions: read-out: IC50 (high-level resistance); cited from earlier work
HIV clinical isolates = conditions: cited from earlier work
[15] = system: HIV with RT Leu74→Val mutation; conditions: cited from earlier work
[16] = system: HIV with RT Lys65→Arg mutation; conditions: Lys65→Arg (K65R); cited from earlier work
[17] = system: HIV with RT Thr69→Asp mutation; conditions: cited from earlier work
[18] = system: HIV with M41L, L210W, T215Y plus M184V; conditions: cited from earlier work

| Structure (SMILES) | effect on susceptibility (words) [1] | Average fold reduction in susceptibility [1] | Average fold reduction in susceptibility [2] | effect on susceptibility (words) [2] | Average fold reduction in susceptibility [3] | effect on susceptibility (words) [4] | effect on susceptibility (words) [6] | effect on susceptibility (words) [7] | effect on susceptibility (words) [8] | effect on susceptibility (words) [9] | fold reduction in susceptibility for each ten-fold decrease in ZDV sensitivity (HIV clinical isolates) | fold increase in IC50 / reduction in susceptibility [16] | susceptibility [11] | other results |
| --- | --- | --- | --- | --- | --- | --- | --- | --- | --- | --- | --- | --- | --- | --- |
| Cc1cn([C@H]2C=C[C@@H](CO)O2)c(=O)[nH]c1=O [d4T, stavudine] | no differences in their susceptibility to d4T; also recorded: did not reduce d4T susceptibility; also recorded: had no affect on d4T susceptibility | 0.84 fold | 5 fold and 5.20 fold | significant decrease in both d4T and AZT susceptibility | 13.18 fold | did not alter d4T susceptibility; also recorded: did not reduce d4T susceptibility; also recorded: had no affect on d4T susceptibility | reduced susceptibility to d4T and AZT | did not reduce d4T susceptibility | no differences in their susceptibility to d4T; also recorded: had no effect on d4T; also recorded: had no affect on d4T susceptibility | decreased susceptibility to d4T |  |  |  | effect on susceptibility (words) ([4]; listed as d4t): no effect on d4t-susceptibility; effect on susceptibility (words) [5]: decreased susceptibility to d4T; also recorded: reduced d4T and AZT susceptibility; fold reduction in susceptibility ([7]; RTV with V75V vs control RTV): less than two-fold; effect of reversion of the T69SSA mutation [10]: reduced d4T resistance; fold increase in IC50 [11]: seven-fold; fold reduction in sensitivity [12]: 30 fold; cross-resistance of isolates with substitutions at codons 62, 75, 77, 116 and 115 ([13]; patients on prolonged ZDV plus ddI or ddC): cross-resistance |
| Cc1cn([C@H]2C[C@H](N=[N+]=[N-])[C@@H](CO)O2)c(=O)[nH]c1=O [AZT, zidovudine] | slight increases in susceptibility to AZT; also recorded: had no effect on AZT susceptibility; also recorded: had no affect on AZT susceptibility | 1.25 fold | 160 fold and 140 fold and 141.71 fold | significant decrease in both d4T and AZT susceptibility | >1000 fold | increase in the susceptibility to AZT; also recorded: increased AZT susceptibility; also recorded: increased AZT susceptibility slightly | reduced susceptibility to d4T and AZT | increased AZT susceptibility slightly | slight increases in susceptibility to AZT; also recorded: did not alter the reduced level of AZT susceptibility caused by the V75I mutation | increased susceptibility to AZT |  |  |  | IC50 [14]: > 1000 nM |
| Nc1ccn([C@H]2CC[C@@H](CO)O2)c(=O)n1 [ddC, zalcitabine] |  | 0.74 fold | 1.41 fold |  | 2.09 fold |  |  |  |  |  | two-fold | five-fold to ten-fold | reduced susceptibility to both ddI and ddC | fold reduction in sensitivity [15]: around ten-fold; fold reduction in sensitivity [17]: five-fold |
| O=c1[nH]cnc2c1ncn2[C@H]1CC[C@@H](CO)O1 [ddI, didanosine] |  | 0.84 fold | 2.02 fold |  | 3.10 fold |  |  |  |  |  | 2.2 fold | three-fold to five-fold | reduced susceptibility to both ddI and ddC |  |
| Nc1nc(NC2CC2)c2ncn([C@H]3C=C[C@@H](CO)C3)c2n1 [ABC, abacavir] |  | 0.59 fold | 9.69 fold |  | 15.53 fold |  |  |  |  |  |  |  |  | fold reduction in susceptibility [18]: eight fold; fold reduction in susceptibility ([13]; A62V, V75I, F77L, Y116F and Q115M): 17 fold |

Source: patent US6489098B1, “Means and methods for monitoring nucleoside reverse transcriptase inhibitor antiretroviral therapy and guiding therapeutic decisions in the treatment of HIV/AIDS” (ViroLogic, Inc., priority 1998, dated 2002)
